Assay results taken from US4110327A, “2,3 Diketo-piperazinocarbonylamino alkanoic acids and derivatives” (Toyama Chemical Co., Ltd., priority 1974, dated 1978).
Values after ≈ are worked out from the molar mass of the structure shown.

What was measured:
Shigella flexneri = experiment: MIC against clinical isolates; assay type: cell-based; details: clinical isolate JS 11215; unit assumed
Experimental: (§1) The minimum inhibitory concentrations (MIC) was determined by the plate method disclosed in "Chemotherapy" (Japan), Vol. 16, (1968), pages 98 - 99. The culture medium used was a Heart infusion agar (pH 7.4). The number of the cells per plate used in the inoculum as 10^4 (10^6 cells/ml).
(§2) MIC was determined in the same manner as in the preceding paragraph (1).

Shigella sonnei = experiment: MIC against clinical isolates; assay type: cell-based; details: clinical isolate JS 11232; unit assumed
Experimental: as §1, §2

β-lactamase = experiment: Resistant activity against β-lactamase, iodometric assay; assay type: biochemical, Pseudomonas aeruginosa GN 238; details: relative to Potassium Penicillin G = 100
Experimental: (3) Resistant activity against β-lactamase, Pseudomonas aergionan GN 238:
The resistant activity of each compound against β-lactamase was measured in the manner described below.
β-Lactamase was prepared from Pseudomonas aeruginosa GN 238. This microorganism was cultured in 100 ml of a medium containing 2 g of yeast extract, 10 g of polypeptone, 2 g of glucose, 7 g of disodium hydrogen phosphate, 2 g of potassium dihydrogen phosphate, 1.2 g of ammonium sulfate and 0.4 g of magnesium sulfate, per liter, in a 500-ml Erlenmeyer flask for 6 hrs. at 37° C with shaking. The resulting cells were collected by centrifugation (5,000 r.p.m. × 10 min.), washed three times with 0.1 M phosphate buffer (pH 7.0). Subsequently, the cells were subjected to sonication (20 KHz, 20 min.) and then centrifuged at 15,000 r.p.m. for 60 min. By using the supernatant of enzyme fluid, the resistance of each compound against β-lactamase was determined by the iodometric assay method. Each numeral shown in Table 7 is a relative activity value calculated by assuming as 100 the activity of the control Potassium Penicillin G.

Proteus rettgeri = experiment: MIC against clinical isolates; assay type: cell-based; details: clinical isolate, unit assumed
Staphylococcus aureus = experiment: MIC against clinical isolates; assay type: cell-based; details: unit assumed
Proteus mirabilis = experiment: MIC against clinical isolates; assay type: cell-based; details: clinical isolate, unit assumed
Proteus morganii = experiment: MIC against clinical isolates; assay type: cell-based; details: clinical isolate, unit assumed
Proteus vulgaris 3027 = experiment: MIC against standard strain, plate method; assay type: cell-based; details: Proteus vulgaris 3027, standard strain; unit assumed
Outline: (§3)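 Cells at 10^6 cells/ml were spotted to give 10^4 cells per plate on heart infusion agar adjusted to pH 7.4. The minimum inhibitory concentration was then read.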

Klebsiella pneumoniae [1] = experiment: MIC against standard strain, plate method; assay type: cell-based; details: unit assumed
Outline: as §3

Escherichia coli NIHJ = experiment: MIC against standard strain, plate method; assay type: cell-based; details: unit assumed
Outline: as §3

[2] = system: Pseudomonas aeruginosa I.F.O.; experiment: MIC against standard strain, plate method; assay type: cell-based; details: unit assumed
Outline: as §3

[3] = system: Staphylococcus aureus 209p; experiment: MIC against standard strain, plate method; assay type: cell-based; details: unit assumed
Outline: as §3

Klebsiella pneumoniae [4] = experiment: MIC against clinical isolates; assay type: cell-based; details: unit assumed
Salmonella typhi = experiment: MIC against clinical isolates; assay type: cell-based; details: unit assumed
Salmonella typhi-murium = experiment: MIC against clinical isolates; assay type: cell-based; details: unit assumed
Escherichia coli = experiment: MIC against clinical isolates; assay type: cell-based; details: unit assumed
Proteus vulgaris = experiment: MIC against clinical isolates; assay type: cell-based; details: clinical isolate, unit assumed
Pseudomonas aeruginosa = experiment: MIC against clinical isolates; assay type: cell-based; details: unit assumed
[5] = clinical isolate GN (number not given; Table 5-3)

Q: `CCCCCN1CCN(C(=O)N[C@@H](C(=O)N[C@@H]2C(=O)N3[C@@H]2SC(C)(C)[C@@H]3C(=O)O)c2ccccc2)C(=O)C1=O` (single isomer, unassigned) [compound 45] was tested. Which MIC (Shigella flexneri) did it give?
A: 25 µg/mL (≈ 44.7 µM)

Q: What about the MIC (Shigella sonnei) of the same compound?
A: 25 µg/mL (≈ 44.7 µM)

Q: And the Relative activity (β-lactamase)?
A: 16%

Q: What about the MIC (Proteus rettgeri) of the same compound?
A: 6.25 µg/mL (≈ 11.2 µM)

Q: And the MIC (Staphylococcus aureus; clinical isolate F-1)?
A: 6.25 µg/mL (≈ 11.2 µM)

Q: What about the MIC (Staphylococcus aureus; clinical isolate F-4) of the same compound?
A: 6.25 µg/mL (≈ 11.2 µM)

Q: And the MIC (Staphylococcus aureus; clinical isolate F-5)?
A: > 200 µg/mL

Q: And the MIC (Staphylococcus aureus; clinical isolate MS 8588)?
A: 3.13 µg/mL (≈ 5.59 µM)

Q: And the MIC (Staphylococcus aureus; clinical isolate MS 8596)?
A: 3.13 µg/mL (≈ 5.59 µM)

Q: And the MIC (Staphylococcus aureus; clinical isolate MS 8619)?
A: 0.79 µg/mL (≈ 1.41 µM)

Q: What about the MIC (Staphylococcus aureus; clinical isolate MS 8684) of the same compound?
A: 3.13 µg/mL (≈ 5.59 µM)

Q: What about the MIC (Staphylococcus aureus; clinical isolate MS 8713) of the same compound?
A: 6.25 µg/mL (≈ 11.2 µM)

Q: And the MIC (Proteus mirabilis)?
A: < 0.4 µg/mL

Q: And the MIC (Proteus morganii)?
A: 0.79 µg/mL (≈ 1.41 µM)

Q: What about the MIC (Proteus vulgaris 3027) of the same compound?
A: 0.4 µg/mL (≈ 0.715 µM)

Q: What about the MIC (Klebsiella pneumoniae [1]) of the same compound?
A: 0.79 µg/mL (≈ 1.41 µM)

Q: And the MIC (Escherichia coli NIHJ)?
A: < 0.1 µg/mL

Q: And the MIC [2]?
A: 12.5 µg/mL (≈ 22.3 µM)

Q: What about the MIC [3] of the same compound?
A: 0.79 µg/mL (≈ 1.41 µM)

Q: And the MIC (Klebsiella pneumoniae [4]; clinical isolate GN 3850)?
A: 3.13 µg/mL (≈ 5.59 µM)

Q: What about the MIC (Klebsiella pneumoniae [4]; clinical isolate GN 4081) of the same compound?
A: 25 µg/mL (≈ 44.7 µM)

Q: And the MIC (Klebsiella pneumoniae [4]; clinical isolate GN 4117)?
A: 25 µg/mL (≈ 44.7 µM)

Q: What about the MIC (Salmonella typhi; clinical isolate SL 819) of the same compound?
A: 1.57 µg/mL (≈ 2.81 µM)

Q: And the MIC (Salmonella typhi; clinical isolate SL 2169)?
A: 0.79 µg/mL (≈ 1.41 µM)

Q: What about the MIC (Salmonella typhi-murium; clinical isolate SL 858) of the same compound?
A: 0.79 µg/mL (≈ 1.41 µM)

Q: What about the MIC (Salmonella typhi-murium; clinical isolate SL 2136) of the same compound?
A: 200 µg/mL (≈ 357 µM)

Q: What about the MIC (Escherichia coli; clinical isolate GN 3435) of the same compound?
A: 0.79 µg/mL (≈ 1.41 µM)

Q: What about the MIC (Escherichia coli; clinical isolate GN 3465) of the same compound?
A: 25 µg/mL (≈ 44.7 µM)

Q: And the MIC (Escherichia coli; clinical isolate GN 3611)?
A: > 200 µg/mL

Q: What about the MIC (Escherichia coli; clinical isolate K-1) of the same compound?
A: 0.79 µg/mL (≈ 1.41 µM)

Q: What about the MIC (Escherichia coli; clinical isolate K-3) of the same compound?
A: 200 µg/mL (≈ 357 µM)

Q: What about the MIC (Escherichia coli; clinical isolate K-4) of the same compound?
A: 0.79 µg/mL (≈ 1.41 µM)

Q: What about the MIC (Proteus vulgaris) of the same compound?
A: < 0.4 µg/mL

Q: What about the MIC (Pseudomonas aeruginosa; clinical isolate GN 82) of the same compound?
A: 12.5 µg/mL (≈ 22.3 µM)

Q: And the MIC (Pseudomonas aeruginosa; clinical isolate GN 163)?
A: 12.5 µg/mL (≈ 22.3 µM)

Q: What about the MIC (Pseudomonas aeruginosa; clinical isolate GN 221) of the same compound?
A: 3.13 µg/mL (≈ 5.59 µM)

Q: What about the MIC (Pseudomonas aeruginosa; clinical isolate GN 376) of the same compound?
A: 25 µg/mL (≈ 44.7 µM)

Q: And the MIC (Pseudomonas aeruginosa; clinical isolate GN 383)?
A: 25 µg/mL (≈ 44.7 µM)

Q: And the MIC (Pseudomonas aeruginosa; clinical isolate GN 1035)?
A: 50 µg/mL (≈ 89.3 µM)

Q: And the MIC (Pseudomonas aeruginosa; clinical isolate GN 1091)?
A: 12.5 µg/mL (≈ 22.3 µM)

Q: And the MIC (Pseudomonas aeruginosa; clinical isolate GN 2565)?
A: 25 µg/mL (≈ 44.7 µM)

Q: And the MIC (Pseudomonas aeruginosa; clinical isolate GN 2987)?
A: 12.5 µg/mL (≈ 22.3 µM)

Q: What about the MIC (Pseudomonas aeruginosa; [5]) of the same compound?
A: 25 µg/mL (≈ 44.7 µM)

Q: What about the MIC (Pseudomonas aeruginosa; clinical isolate S-1) of the same compound?
A: 25 µg/mL (≈ 44.7 µM)

Q: And the MIC (Pseudomonas aeruginosa; clinical isolate S-2)?
A: 25 µg/mL (≈ 44.7 µM)

Q: What about the MIC (Pseudomonas aeruginosa; clinical isolate S-3) of the same compound?
A: 50 µg/mL (≈ 89.3 µM)

Q: What about the MIC (Pseudomonas aeruginosa; clinical isolate S-4) of the same compound?
A: 25 µg/mL (≈ 44.7 µM)

Q: How did the MIC (Shigella flexneri) turn out when `CCCN1CCN(C(=O)N[C@@H](C(=O)N[C@@H]2C(=O)N3[C@@H]2SC(C)(C)[C@@H]3C(=O)O)c2ccccc2)C(=O)C1=O` (single isomer, unassigned) [compound 38] was run?
A: 25 µg/mL (≈ 47 µM)

Q: What about the MIC (Shigella sonnei) of the same compound?
A: 50 µg/mL (≈ 94.1 µM)

Q: What about the Relative activity (β-lactamase) of the same compound?
A: 15%

Q: And the MIC (Proteus rettgeri)?
A: 12.5 µg/mL (≈ 23.5 µM)

Q: And the MIC (Staphylococcus aureus; clinical isolate F-1)?
A: 6.25 µg/mL (≈ 11.8 µM)

Q: And the MIC (Staphylococcus aureus; clinical isolate F-3)?
A: 0.79 µg/mL (≈ 1.49 µM)

Q: And the MIC (Staphylococcus aureus; clinical isolate F-4)?
A: 6.25 µg/mL (≈ 11.8 µM)

Q: And the MIC (Staphylococcus aureus; clinical isolate F-5)?
A: > 200 µg/mL

Q: And the MIC (Staphylococcus aureus; clinical isolate MS 8619)?
A: 0.79 µg/mL (≈ 1.49 µM)

Q: What about the MIC (Staphylococcus aureus; clinical isolate MS 8713) of the same compound?
A: 6.25 µg/mL (≈ 11.8 µM)

Q: What about the MIC (Proteus mirabilis) of the same compound?
A: < 0.4 µg/mL

Q: And the MIC (Proteus morganii)?
A: < 0.4 µg/mL

Q: What about the MIC (Proteus vulgaris 3027) of the same compound?
A: 0.4 µg/mL (≈ 0.752 µM)

Q: And the MIC (Escherichia coli NIHJ)?
A: < 0.1 µg/mL

Q: What about the MIC [2] of the same compound?
A: 6.25 µg/mL (≈ 11.8 µM)

Q: What about the MIC [3] of the same compound?
A: 0.4 µg/mL (≈ 0.752 µM)

Q: And the MIC (Klebsiella pneumoniae [4]; clinical isolate GN 3850)?
A: 6.25 µg/mL (≈ 11.8 µM)

Q: And the MIC (Klebsiella pneumoniae [4]; clinical isolate GN 4081)?
A: 50 µg/mL (≈ 94.1 µM)

Q: And the MIC (Klebsiella pneumoniae [4]; clinical isolate GN 4117)?
A: 50 µg/mL (≈ 94.1 µM)

Q: And the MIC (Salmonella typhi; clinical isolate SL 819)?
A: 1.57 µg/mL (≈ 2.95 µM)

Q: And the MIC (Salmonella typhi; clinical isolate SL 2169)?
A: 0.79 µg/mL (≈ 1.49 µM)

Q: And the MIC (Salmonella typhi-murium; clinical isolate SL 858)?
A: 3.13 µg/mL (≈ 5.89 µM)

Q: And the MIC (Salmonella typhi-murium; clinical isolate SL 2136)?
A: 200 µg/mL (≈ 376 µM)

Q: What about the MIC (Escherichia coli; clinical isolate GN 3435) of the same compound?
A: 0.79 µg/mL (≈ 1.49 µM)

Q: And the MIC (Escherichia coli; clinical isolate GN 3465)?
A: 50 µg/mL (≈ 94.1 µM)

Q: And the MIC (Escherichia coli; clinical isolate GN 3611)?
A: > 200 µg/mL

Q: What about the MIC (Escherichia coli; clinical isolate K-3) of the same compound?
A: > 200 µg/mL

Q: What about the MIC (Escherichia coli; clinical isolate K-4) of the same compound?
A: 0.79 µg/mL (≈ 1.49 µM)

Q: What about the MIC (Proteus vulgaris) of the same compound?
A: < 0.4 µg/mL

Q: And the MIC (Pseudomonas aeruginosa; clinical isolate GN 221)?
A: 6.25 µg/mL (≈ 11.8 µM)

Q: And the MIC (Pseudomonas aeruginosa; clinical isolate GN 383)?
A: 6.25 µg/mL (≈ 11.8 µM)

Q: What about the MIC (Pseudomonas aeruginosa; clinical isolate GN 1035) of the same compound?
A: 12.5 µg/mL (≈ 23.5 µM)

Q: And the MIC (Pseudomonas aeruginosa; clinical isolate GN 2565)?
A: 12.5 µg/mL (≈ 23.5 µM)

Q: And the MIC (Pseudomonas aeruginosa; clinical isolate GN 2987)?
A: 6.25 µg/mL (≈ 11.8 µM)

Q: What about the MIC (Pseudomonas aeruginosa; [5]) of the same compound?
A: 6.25 µg/mL (≈ 11.8 µM)

Q: And the MIC (Pseudomonas aeruginosa; clinical isolate S-1)?
A: 12.5 µg/mL (≈ 23.5 µM)

Q: What about the MIC (Pseudomonas aeruginosa; clinical isolate S-2) of the same compound?
A: 12.5 µg/mL (≈ 23.5 µM)

Q: What about the MIC (Pseudomonas aeruginosa; clinical isolate S-3) of the same compound?
A: 12.5 µg/mL (≈ 23.5 µM)

Q: And the MIC (Pseudomonas aeruginosa; clinical isolate S-4)?
A: 12.5 µg/mL (≈ 23.5 µM)
